Source: patent US12461092B2, “Screening method for APP cleavage activity-controlling substances of ADAMTS4” (SHIMADZU CORPORATION, priority 2019, dated 2025)

Legend:
[1] = test system: APP stable HEK cells; assay: Aβ-related peptide production in culture supernatant of APP stable HEK cells by IP-MS (Example 4); type: cell-based, human; conditions: 25 μM
Protocol: As a matrix for linear TOF, α-cyano-4-hydroxycinnamic acid (CHCA) was used. A matrix solution was prepared by dissolving 1 mg of CHCA in 1 mL of 70% (v/v) acetonitrile. As a matrix additive, 0.4% (w/v) methylenediphosphonic acid (MDPNA) was used. […]
In the mass spectrum, signal intensity of each Aβ-related peptide was normalized using an internal standard peptide. Thereafter, an average of four normalized intensities obtained from one sample was obtained, which was evaluated as a production amount of the Aβ-related peptide. […]

[2] = test system: A549-ADAMTS4 KO cells; assay: Aβ-related peptide production in culture supernatant of A549-ADAMTS4 KO cells by IP-MS (Example 1); type: cell-based, human; conditions: 25 μM, 96 hours, compared with DMSO control
Protocol: In A549 cells, an influence on production of APP669-x caused by ADAMTS4 knockout using CRISPR/Cas9 (clustered regularly interspaced short palindromic repeats/CRISPR associated proteins) and guide RNA (gRNA), and a treatment with GM6001, a metalloprotease inhibitor, was evaluated. A549 cell is human adenocarcinomic alveolar basal epithelial cell. The gRNA was designed using CRISPR Search (https://www.sanger.ac.uk/htgt/wge/find_crisprs).
Vectors in which cDNAs respectively encoding paired gRNAs targeting ADAMTS4 were inserted respectively into vector px335 (Addgene 042335) expressing SpCas9 nickase and gRNA and retrovirus-derived vector pBabe Puro U6 BbsI (donated by Professor Dario Alessi, Dundee University) were constructed.
These vectors were transfected, and the resultant transfectants were subjected to selection with puromycin for monocloning. A genome was extracted from each monoclonal cell, and a genome fragment including a gene region targeted by gRNA was amplified by PCR to be subjected to sanger sequencing. Primers used for amplifying the genome fragment were as follows: […]
As a result of analysis of a plurality of monoclonal cells, it was presumed that ADAMTS4 gene region of A549 cell has three alleles. Then, a monoclonal cell respectively having deletion of 16 bp, 29 bp and 20 bp in the gene region of ADAMTS4 gene as shown in FIG. 2 was obtained. Since none of these is a multiple of 3, it is presumed that normal ADAMTS4 protein is not expressed. Therefore, it was regarded that this cell is A549 cell having endogenous ADAMTS4 knockout (KO) (A549-ADAMTS4 KO cell).
A metalloprotease inhibitor, GM6001 (25 μM), or dimethylsulfoxide (DMSO) used as a control was added to each of A549-ADAMTS4 KO cells and A549-wild type (wt) cells, and the resultant cells were incubated for 96 hours. Thereafter, a culture supernatant was collected, and stored at −80° C. until measurement.
(§1) An Aβ-related peptide contained in the culture supernatant was measured by IP-MS corresponding to a combination of immunoprecipitation (IP) and mass spectrometry (MS). In IP, antibody immobilized beads obtained by covalent binding of anti-Aβ antibody clone 6E10 (BioLegend) to Dynabeads Epoxy (Thermo Fisher Scientific) were used.
The cryopreserved culture supernatant was thawed, and 250 μL of a reaction liquid containing internal standard peptides [800 mM GlcNAc, 0.2/a (w/v) NTM, 0.2% (w/v) DDM, 300 mM NaCl, and 100 mM Tris-HCl buffer (pH 7.4)] was mixed with 250 μL of the culture supernatant. The thus obtained mixture was mixed with the antibody immobilized beads, followed by an antigen antibody reaction at 4° C. for 1 hour. As the internal standard peptides, 22 μM stable isotope labeled Aβ1-38 and 100 μM stable isotope labeled A31-15 were used. […]

[3] = test system: adenocarcinomic human alveolar basal epithelial cell A549; assay: Aβ-related peptide production in culture supernatant of A549 cells by IP-MS (Example 4); type: cell-based; conditions: 96 hours, DMSO control
Protocol: as §1
(§2) The cryopreserved culture supernatant was thawed, and 250 μL of a reaction liquid containing internal standard peptides [800 mM GlcNAc, 0.2/a (w/v) NTM, 0.2% (w/v) DDM, 300 mM NaCl, and 100 mM Tris-HCl buffer (pH 7.4)] was mixed with 250 μL of the culture supernatant. The thus obtained mixture was mixed with the antibody immobilized beads, followed by an antigen antibody reaction at 4° C. for 1 hour. As the internal standard peptides, 22 μM stable isotope labeled Aβ1-38 and 100 μM stable isotope labeled A31-15 were used.
(§3) After the antigen antibody reaction, the antibody immobilized beads were washed with a first washing buffer [washed once with 100 μL of the first washing buffer (0.1% DDM, 0.1% NTM, 50 mM Tris-HCl (pH 7.4) and 150 mM NaCl), and then once with 50 μL of a 50 mM ammonium acetate buffer]. Thereafter, the Aβ-related peptide captured by the antibody immobilized beads was eluted with a glycine buffer containing DDM (50 mM glycine buffer containing 0.1% of DDM, pH 2.8). To the thus obtained eluate, Tris buffer containing DDM [800 mM GlcNAc, 0.2% (w/v) DDM, 300 mM NaCl, and 300 mM Tris-HCl buffer (pH 7.4)] was added to restore the pH to neutral (pH 7.4). Thereafter, the neutral eluate was contacted with the antibody immobilized beads at 4° C. for 1 hour again to cause the antigen antibody reaction of the Aβ-related peptide. The resultant was washed with a second washing buffer [washed twice with 100 μL of the second washing buffer (0.1% DDM, 150 mM Tris-HCl (pH 7.4), and 150 mM NaCl), and once with 50 μL of a 50 mM ammonium acetate buffer], and then, the Aβ-related peptide captured by the antibody immobilized beads was eluted with an eluent (5 mM HCl, 0.1 mM methionine, and 70% (v/v) acetonitrile). In this manner, each eluate containing the Aβ-related peptide was obtained through two-stage IP operation.
(§4) As a matrix for linear TOF, α-cyano-4-hydroxycinnamic acid (CHCA) was used. A matrix solution was prepared by dissolving 1 mg of CHCA in 1 mL of 70% (v/v) acetonitrile. As a matrix additive, 0.4% (w/v) methylenediphosphonic acid (MDPNA) was used. A 1 mg/mL CHCA solution and 0.4% (w/v) MDPNA were mixed in equivalent amounts to obtain a matrix/matrix additive solution [0.5 mg/mL CHCA/0.2% (w/v) MDPNA].
(§5) Precedently, 0.5 μL of the matrix/matrix additive solution was added in a dropwise manner into respective wells of μFocus MALDI Plate™ 900 μm (Hudson Surface Technology, Inc., Fort Lee, NJ), and then dried.
(§6) Each eluate resulting from IP was added in a dropwise manner into 4 wells of the μFocus MALDI Plate™ 900 μm, and then dried.
(§7) Mass spectral data was obtained by linear TOF in the positive ion mode using AXIMA Performance (Shimadzu/KRATOS, Manchester, UK). An m/z value of linear TOF was indicated as an average mass of peaks. The m/z value was calibrated using, as external standards, human angiotensin II, human ACTH fragment 18-39, bovine insulin oxidized beta-chain, and bovine insulin.
(§8) In the mass spectrum, signal intensity of each Aβ-related peptide was normalized using an internal standard peptide. Thereafter, an average of four normalized intensities obtained from one sample was obtained, which was evaluated as a production amount of the Aβ-related peptide. When there were two or more data not reaching a lower detection limit (S/N<3), it was regarded as undetectable.
(§9) A metalloprotease inhibitor, 25 μM GM6001 (Cosmobio) or 10 μM INCB3619 (NPL 8), was caused to act on, or DMSO was added as a control to human neuroblastoma BE(2)-C and adenocarcinomic human alveolar basal epithelial cell A549, and the resultant cells were incubated for 96 hours. […]

[4] = test system: A549-wild type (wt) cells; assay: Aβ-related peptide production in culture supernatant of A549-wt cells by IP-MS (Example 1); type: cell-based, human; conditions: 25 μM, 96 hours, compared with DMSO control
Protocol: After the antigen antibody reaction, the antibody immobilized beads were washed with a first washing buffer [washed once with 100 μL of the first washing buffer (0.1% DDM, 0.1% NTM, 50 mM Tris-HCl (pH 7.4) and 150 mM NaCl), and then once with 50 μL of a 50 mM ammonium acetate buffer]. Thereafter, the Aβ-related peptide captured by the antibody immobilized beads was eluted with a glycine buffer containing DDM (50 mM glycine buffer containing 0.1% of DDM, pH 2.8). To the thus obtained eluate, Tris buffer containing DDM [800 mM GlcNAc, 0.2% (w/v) DDM, 300 mM NaCl, and 300 mM Tris-HCl buffer (pH 7.4)] was added to restore the pH to neutral (pH 7.4). Thereafter, the neutral eluate was contacted with the antibody immobilized beads at 4° C. for 1 hour again to cause the antigen antibody reaction of the Aβ-related peptide. The resultant was washed with a second washing buffer [washed twice with 100 μL of the second washing buffer (0.1% DDM, 150 mM Tris-HCl (pH 7.4), and 150 mM NaCl), and once with 50 μL of a 50 mM ammonium acetate buffer], and then, the Aβ-related peptide captured by the antibody immobilized beads was eluted with an eluent (5 mM HCl, 0.1 mM methionine, and 70% (v/v) acetonitrile). In this manner, each eluate containing the Aβ-related peptide was obtained through two-stage IP operation. […]

[5] = test system: human neuroblastoma BE(2)-C; assay: Aβ-related peptide production in culture supernatant of BE(2)-C cells by IP-MS (Example 4); type: cell-based; conditions: for APP669 cleavage activity (on the N-terminal side): conclusion from BE(2)-C and A549 cells
Protocol: as §1, §2, §3, §4, §5, §6, §7, §8, §9

[6] = BE(2)-C cells, 25 μM, 96 hours, DMSO control
[7] = BE(2)-C cells, 10 μM, 96 hours, DMSO control

SMILES: CNC(=O)[C@H](Cc1c[nH]c2ccccc12)NC(=O)[C@@H](CC(=O)NO)CC(C)C [GM6001]
- production amount of APP669-709 (Aβ(3-38)) [1]: decreased
- production amount of APP669-711 (Aβ(−3-40)) [1]: decreased
- production amount of Aβ1-38 [1]: not decreased
- production amount of Aβ1-40 [1]: not decreased
- production amount of APP669-709 (Aβ(−3-38)) [2]: tended to be decreased to substantially a half
- production amount of APP669-711 (Aβ(−3-40)) [2]: tended to be decreased to substantially a half
- production amount of Aβ1-38 [2]: tended to be rather increased
- production amount of Aβ1-40 [2]: tended to be rather increased
- production amount of APP669-709 (Aβ(3-38)) ([3]; 25 μM): decreased
- production amount of APP669-711 (Aβ(−3-40)) ([3]; 25 μM): decreased
- production amount of Aβ1-38 ([3]; 25 μM): not decreased
- production amount of Aβ1-40 ([3]; 25 μM): not decreased
- production amount of APP669-709 (Aβ(−3-38)) [4]: tended to be decreased to substantially a half
- production amount of APP669-711 (Aβ(−3-40)) [4]: tended to be decreased to substantially a half
- production amount of Aβ1-38 [4]: tended to be rather increased
- production amount of Aβ1-40 [4]: tended to be rather increased
- production amount of APP669-709 (Aβ(3-38)) [5, 6]: decreased
- production amount of APP669-711 (Aβ(−3-40)) [5, 6]: decreased
- production amount of Aβ1-38 [5, 6]: not decreased
- production amount of Aβ1-40 [5, 6]: not decreased
- APP669 cleavage activity (on the N-terminal side) ([5]; 25 μM): decreases

SMILES: COC(=O)N1CC2(CC2)C[C@H](C(=O)NO)[C@H]1C(=O)N1CC=C(c2ccccc2)CC1 [INCB3619]
- production amount of APP669-709 (Aβ(3-38)) ([3]; 10 μM): not changed
- production amount of APP669-711 (Aβ(−3-40)) ([3]; 10 μM): not changed
- production amount of APP669-709 (Aβ(3-38)) [5, 7]: rather slightly decreased
- production amount of APP669-711 (Aβ(−3-40)) [5, 7]: rather slightly decreased
- APP669 cleavage activity (on the N-terminal side) ([5]; 10 μM): low effect of decreasing
